From US8765730B2 (Hoffmann-La Roche Inc, priority 2010, dated 2014) come the findings set out here.

In the experiment the target is T1, human GPBAR1 receptor (Homo sapiens, UniProt Q8TDU6).
T1 construct: expressed in transfected cells
T1 sequence (Q8TDU6 1-330): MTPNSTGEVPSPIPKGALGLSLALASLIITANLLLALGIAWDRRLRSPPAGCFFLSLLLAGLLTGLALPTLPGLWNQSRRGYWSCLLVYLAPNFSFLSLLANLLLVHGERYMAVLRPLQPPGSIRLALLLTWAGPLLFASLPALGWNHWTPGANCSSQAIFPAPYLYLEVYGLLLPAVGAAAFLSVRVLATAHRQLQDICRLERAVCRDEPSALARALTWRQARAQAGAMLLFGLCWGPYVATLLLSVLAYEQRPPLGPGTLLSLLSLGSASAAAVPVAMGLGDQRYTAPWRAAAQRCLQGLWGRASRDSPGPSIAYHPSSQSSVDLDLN
In words: functional cAMP assay in CHO-dhfr(minus) cells expressing human GPBAR1 receptors. The format is cell-based. As to conditions: human EC50, functional cAMP assay, 30 min at 30° C. In outline:
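Agonist cAMP read-out: stable GPBAR1 CHO-dhfr− clone, 30 min compound exposure at 30° C following 30 min IBMX (1 mM) preincubation in Krebs Ringer bicarbonate. Time-resolved energy-transfer detection gives EC50; parental CHO cells serve as counter-screen.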
The compound `COC(=O)c1ccc(-c2ccc(C(CC(=NO)c3ccnc(C)c3)c3ccccc3C)cc2)cc1Cl` (racemic) [Example 83, 3-Chloro-4′-[3-[hydroxyimino]-3-(2-methyl-pyridin-4-yl)-1-o-tolyl-propyl]-biphenyl-4-carboxylic acid methyl ester] displayed an EC50 of 455 nM.

`Cc1cc(=O)n(C)cc1/C(CC(c1ccc(Br)cc1)c1ccccc1C)=N\O` (stereo not shown) [Example 200, 5-{3-(4-Bromo-phenyl)-1-[(Z)-hydroxyimino]-3-o-tolyl-propyl}-1,4-dimethyl-1H-pyridin-2-one] gave an EC50 of 558 nM.

The compound `Cc1ccccc1[C@H](C/C(=N\O)c1ccnc(Cl)c1)c1ccc(-c2ccc(C(=O)O)cc2)cc1` [Example 290, 4′-{(R)-3-(2-Chloro-pyridin-4-yl)-3-[(E)-hydroxyimino]-1-o-tolyl-propyl}-biphenyl-4-carboxylic acid] yielded an EC50 of 37 nM.

In turn, `COC(=O)CNC(=O)c1ccc(-c2ccc(C(C/C(=N\O)c3ccc(=O)n(C)c3)c3ccc(Cl)cc3C)cc2)cc1` (single isomer, unassigned; (+)) [Example 254, (+)-({4′-[1-(4-chloro-2-methyl-phenyl)-3-[(E)-hydroxyimino]-3-(1-methyl-6-oxo-1,6-dihydro-pyridin-3-yl)-propyl]-biphenyl-4-carbonyl}-amino)-acetic acid methyl ester] showed a 50% effective concentration (EC50) of 60 nM.

Compound `Cc1ccccc1[C@@H](C/C(=N\O)c1ccc(=O)n(C)c1)c1ccc([C@H]2CC[C@H](C(=O)O)CC2)cc1` [Example 488, Trans-4-(4-((S,E)-3-(Hydroxyimino)-3-(1-methyl-6-oxo-1,6-dihydropyridin-3-yl)-1-o-tolylpropyl)phenyl)cyclohexanecarboxylic acid] displayed a concentration giving a half-maximal response (EC50) of 612 nM.

`Cc1ccccc1C(C/C(=N\O)c1cc(Cl)nc(Cl)c1)c1ccc(Br)cc1` (stereo not shown) [Example 120, (E)-3-(4-Bromo-phenyl)-1-(2,6-dichloro-pyridin-4-yl)-3-o-tolyl-propan-1-one oxime] showed an EC50 of 184 nM.

Turning to `Cc1cc(/C(C[C@H](c2ccc([C@H]3CC[C@@H](C(=O)O)CC3)cc2)c2ccccc2C)=N/O)ccn1` [Example 492, cis-4-{4-[(R)-3-[(E)-hydroxyimino]-3-(2-methyl-pyridin-4-yl)-1-o-tolyl-propyl]-phenyl}-cyclohexanecarboxylic acid], the concentration for a half-maximal effect (EC50) turned out to be 18 nM.

Compound `Cc1cc(C(CC(c2cccc(C#CCO)c2)c2ccccc2C)=NO)ccn1` (racemic) [Example 106, 3-[3-(3-Hydroxy-prop-1-ynyl)-phenyl]-1-(2-methyl-pyridin-4-yl)-3-o-tolyl-propan-1-one oxime] yielded a concentration for a half-maximal effect (EC50) of 255 nM. This EC50 lies about 14-fold higher than the previous one.

In turn, `Cn1cc(/C(CC(c2ccc(-c3ccc(C(=O)O)c(F)c3)cc2)c2ccc(Cl)cc2Cl)=N/O)ccc1=O` (single isomer, unassigned) [Example 474, 4′-[(−)-1-(2,4-Dichloro-phenyl)-3-[(E)-hydroxyimino]-3-(1-methyl-6-oxo-1,6-dihydro-pyridin-3-yl)-propyl]-3-fluoro-biphenyl-4-carboxylic acid] returned an EC50 of 43 nM.

`Cc1cc(/C(C[C@@H](c2ccc(O)cc2)c2ccc(Cl)cc2C)=N/O)ccn1` [Example 365, (S)-3-(4-Chloro-2-methyl-phenyl)-3-(4-hydroxy-phenyl)-1-(2-methyl-pyridin-4-yl)-propan-1-one oxime] yielded an EC50 of 233 nM.

On to `Cc1cc(Cl)ccc1[C@H](C/C(=N\O)c1ccc(=O)n(C)c1)c1ccc(-c2ccc(C(=O)O)cc2)cc1` (single isomer, unassigned) [Example 393, (+)-4′-[1-(4-Chloro-2-methyl-phenyl)-3-[(E)-hydroxyimino]-3-(1-methyl-6-oxo-1,6-dihydro-pyridin-3-yl)-propyl]-biphenyl-4-carboxylic acid; compound with triethylamine 1:0.9], for which the response was half-maximal at 95 nM (EC50). Compared with the last compound, the EC50 is about 2.5-fold lower.

`Cc1cc(Cl)ccc1[C@@H](C/C(=N\O)c1ccc(=O)n(C)c1)c1ccc(-c2ccc(S(N)(=O)=O)cc2)cc1` (single isomer, unassigned) [Example 414, (+)-4′-[1-(4-Chloro-2-methyl-phenyl)-3-[(E)-hydroxyimino]-3-(1-methyl-6-oxo-1,6-dihydro-pyridin-3-yl)-propyl]-biphenyl-4-sulfonic acid amide] gave an EC50 of 18 nM.

`Cc1ccccc1[C@H](C/C(=N\O)c1ccc(=O)n(C)c1)c1ccc(CC(=O)O)cc1` [Example 493, (R,E)-2-(4-(3-(Hydroxyimino)-3-(1-methyl-6-oxo-1,6-dihydropyridin-3-yl)-1-o-tolylpropyl)phenyl)acetic acid] showed an EC50 of 666 nM.

Turning to `Cc1cc(Cl)ccc1[C@H](C/C(=N\O)c1cc[n+]([O-])c(C)c1)c1ccc(Br)cc1` [Example 384, (R,E)-4-(3-(4-Bromophenyl)-3-(4-chloro-2-methylphenyl)-1-(hydroxyimino)propyl)-2-methylpyridine 1-oxide], a half-maximal response (EC50) required 168 nM.

As to `Cn1cc(/C(CC(c2ccc(-c3ccc(CC(=O)O)cc3)cc2)c2ccc(Cl)cc2F)=N/O)ccc1=O` (single isomer, unassigned) [Example 462, {4′-[(+)-1-(4-chloro-2-fluoro-phenyl)-3-[(E)-hydroxyimino]-3-(1-methyl-6-oxo-1,6-dihydro-pyridin-3-yl)-propyl]-biphenyl-4-yl}-acetic acid], the concentration for a half-maximal effect (EC50) came to 153 nM.

`Cc1cc(/C(C[C@@H](c2ccc(C(=O)O)cc2)c2ccc(Cl)cc2C)=N/O)ccn1` [Example 282, 4-[(S)-1-(4-Chloro-2-methyl-phenyl)-3-[(E)-hydroxyimino]-3-(2-methyl-pyridin-4-yl)-propyl]-benzoic acid] yielded a 50% effective concentration (EC50) of 648 nM.

Consider `Cc1cc(/C(CC(c2ccc(C(=O)NC[C@@H](C)O)cc2)c2ccc(F)cc2F)=N/O)ccn1` (stereo partly drawn) [Example 434, 4-[1-(2,4-Difluoro-phenyl)-3-[(E)-hydroxyimino]-3-(2-methyl-pyridin-4-yl)-propyl]-N—((R)-2-hydroxy-propyl)-benzamide], for which the midpoint of the response, the EC50, lay at 49 nM.

Take `COC(=O)c1ccc(-c2ccc(C(C/C(=N\O)c3ccnc(C)c3)c3ccc(Cl)cc3F)cc2)cc1Cl` (stereo not shown) [Example 450, 3-Chloro-4′-[1-(4-chloro-2-fluoro-phenyl)-3-[(E)-hydroxyimino]-3-(2-methyl-pyridin-4-yl)-propyl]-biphenyl-4-carboxylic acid methyl ester]: the concentration giving a half-maximal response (EC50) was determined as 416 nM. This EC50 lies about 8.5-fold higher than the previous one.

For the compound `Cc1cc(/C(C[C@H](c2ccc(-c3nnc(CC(=O)O)o3)cc2)c2ccccc2C)=N/O)ccn1` (single isomer, unassigned) [Example 422, (5-{4-[(−)-3-[(E)-Hydroxyimino]-3-(2-methyl-pyridin-4-yl)-1-o-tolyl-propyl]-phenyl}-[1,3,4]oxadiazol-2-yl)-acetic acid], the half-maximal effective concentration (EC50) was 11 nM. This EC50 is about 38-fold lower than that of the compound before.

`CCOC(=O)COc1cccc(-c2ccc(C(C/C(=N\O)c3ccncc3)c3ccccc3)cc2)c1` (stereo not shown) [Example 28, (4′-{3-[(E)-Hydroxyimino]-1-phenyl-3-pyridin-4-yl-propyl}-biphenyl-3-yloxy)-acetic acid ethyl ester] came in with an EC50 of 163 nM. Compared with the last compound, the EC50 is about 15-fold higher.

Turning to `COC(=O)CNC(=O)c1ccc(-c2ccc(C(C/C(=N\O)c3ccc(=O)n(C)c3)c3ccc(F)cc3C)cc2)cc1` (stereo not shown) [Example 257, ({4′-[1-(4-Fluoro-2-methyl-phenyl)-3-[(E)-hydroxyimino]-3-(1-methyl-6-oxo-1,6-dihydro-pyridin-3-yl)-propyl]-biphenyl-4-carbonyl}-amino)-acetic acid methyl ester], the concentration for a half-maximal effect (EC50) stood at 20 nM.

As to `Cc1ccccc1C(CC(=NO)c1ccncc1)c1ccc(N2CCOCC2)cc1` (racemic) [Example 41, 3-(4-Morpholin-4-yl-phenyl)-1-pyridin-4-yl-3-o-tolyl-propan-1-one oxime], it took 36 nM to reach a half-maximal effect (EC50).

As to `CCS(=O)(=O)c1ccc(C(C/C(=N\O)c2ccc(=O)n(C)c2)c2ccc(Cl)cc2F)cc1` (stereo not shown) [Example 316, (E)-5-(3-(4-Chloro-2-fluorophenyl)-3-(4-(ethylsulfonyl)phenyl)-1-(hydroxyimino)propyl)-1-methylpyridin-2(1H)-one], the EC50 turned out to be 319 nM.

Compound `Cc1cc(=O)n(C)cc1/C(CC(c1ccc(Br)cc1)c1ccccc1C)=N/O` (stereo not shown) [Example 199, 5-{3-(4-Bromo-phenyl)-1-[(E)-hydroxyimino]-3-o-tolyl-propyl}-1,4-dimethyl-1H-pyridin-2-one] gave an EC50 of 23 nM.

Consider `COc1ccc(C2(C/C(=N\O)c3ccnc(C)c3)CCCCC2)cc1` [Example 158, (E)-2-[1-(4-Methoxy-phenyl)-cyclohexyl]-1-(2-methyl-pyridin-4-yl)-ethanone oxime], for which the EC50 is 1030 nM.

The compound `Cc1ccccc1C(C/C(=N\O)c1cc(F)cc(F)c1)c1ccc(Br)cc1` (stereo not shown) [Example 53, (E)-3-(4-bromo-phenyl)-1-(3,5-difluoro-phenyl)-3-o-tolyl-propan-1-one oxime] returned an EC50 of 6760 nM.

`Cc1ccc(C(C/C(=N\O)c2ccc(=O)n(C)c2)c2ccc(Br)cc2)c(F)c1` (stereo not shown) [Example 408, (E)-5-(3-(4-bromophenyl)-3-(2-fluoro-4-methylphenyl)-1-(hydroxyimino)propyl)-1-methylpyridin-2(1H)-one] registered an EC50 of 118 nM.

With `Cc1cc(/C(C[C@H](c2ccc(C3CN(S(C)(=O)=O)C3)cc2)c2ccccc2C)=N/O)ccn1` [Example 484, (R,E)-1-(2-Methylpyridin-4-yl)-3-(4-(1-(methylsulfonyl)azetidin-3-yl)phenyl)-3-o-tolylpropan-1-one oxime], the EC50 was determined as 10 nM.
